Laboratory results published in ChEMBL document CHEMBL1201862, “PubChem BioAssay data set” (2004).
Active and inactive are the calls of the source.

Columns and labels:
[1] = cytotoxicity toward NIH3T3 fibroblasts, dose response, counter-screen, cell-based, ATP luminescence, mouse fibroblasts (AID 2010); assay type: functional;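 also: cells exposed to compound for about 90 hours before reading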
[2] = inhibitors of intracellular T. cruzi replication, confirmation, NIH3T3 host cells, beta-gal luminescence (AID 2044); assay type: functional, cell-based;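 also: intracellular parasites grown in NIH/3T3 mouse fibroblasts as host cells; luminescent beta-galactosidase reporter signal from transgenic T. cruzi replicating inside host cells; inhibitors lower the luminescence signal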
[3] = biological target: Cytochrome P450 2C19 (Homo sapiens, UniProt P33261); experiment: Cytochrome panel assay with activity outcomes. Panel member name: p450-cyp2c19 Compounds with AC50 equal or less than 10 uM are considered active; assay type: functional
[4] = biological target: T1, Heat shock factor protein 1 (Mus musculus, UniProt P38532); experiment: inhibition of MG132-induced HSE-luciferase signal, confirmation, cell-based, NIH3T3, luminescence, dose retest (AID 2382); assay type: functional;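 also: NIH3T3 fibroblasts with HSF1-driven luciferase reporter stressed by proteasome inhibitor MG132; luminescence from HSF1-driven luciferase expression after 8 hours of MG132 stress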
T1 sequence (P38532 whole entry): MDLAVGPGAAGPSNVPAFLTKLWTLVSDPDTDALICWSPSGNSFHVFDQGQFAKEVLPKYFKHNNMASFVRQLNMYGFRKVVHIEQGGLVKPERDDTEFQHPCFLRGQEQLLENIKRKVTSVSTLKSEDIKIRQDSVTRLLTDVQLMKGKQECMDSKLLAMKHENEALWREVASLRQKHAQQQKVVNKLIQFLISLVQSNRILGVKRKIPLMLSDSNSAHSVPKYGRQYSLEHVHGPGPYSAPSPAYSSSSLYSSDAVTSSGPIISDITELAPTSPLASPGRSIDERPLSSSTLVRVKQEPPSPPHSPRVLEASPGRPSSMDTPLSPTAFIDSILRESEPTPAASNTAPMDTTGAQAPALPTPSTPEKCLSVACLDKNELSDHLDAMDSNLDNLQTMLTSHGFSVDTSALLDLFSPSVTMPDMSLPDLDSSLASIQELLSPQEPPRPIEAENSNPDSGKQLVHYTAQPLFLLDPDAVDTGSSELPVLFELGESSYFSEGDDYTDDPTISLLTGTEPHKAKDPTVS

[5] = biological target: Cytochrome P450 2D6 (Homo sapiens, UniProt P10635);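 also: CYP2D6 member of a cytochrome P450 panel assay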
[6] = biological target: Cytochrome P450 2C9 (Homo sapiens, UniProt P11712)
[7] = Luminescence Cell-Based Dose Retest to Confirm Inhibitors of Cancer Stem Cells. [Related pubchem assays (depositor defined):AID2717, AID2721]; assay type: functional; conditions: Homo sapiens
[8] = system: Streptococcus sp. 'group A'; experiment: growth inhibition of control SK(-) GAS strain, dose response, counter-screen for streptokinase expression inhibitor project, luminescence, kanamycin, BacTiterGlo, confirmation (AID 1900); assay type: functional, organism-based
[9] = system: Streptococcus; experiment: Group A Streptococcus viability loss, dose response, counter-screen for streptokinase expression inhibitor project, luminescence, BacTiterGlo (AID 1915); assay type: functional, organism-based;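 also: potency for reduction of bacterial viability or growth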

Sequence of Cytochrome P450 2C9 (P11712 whole entry): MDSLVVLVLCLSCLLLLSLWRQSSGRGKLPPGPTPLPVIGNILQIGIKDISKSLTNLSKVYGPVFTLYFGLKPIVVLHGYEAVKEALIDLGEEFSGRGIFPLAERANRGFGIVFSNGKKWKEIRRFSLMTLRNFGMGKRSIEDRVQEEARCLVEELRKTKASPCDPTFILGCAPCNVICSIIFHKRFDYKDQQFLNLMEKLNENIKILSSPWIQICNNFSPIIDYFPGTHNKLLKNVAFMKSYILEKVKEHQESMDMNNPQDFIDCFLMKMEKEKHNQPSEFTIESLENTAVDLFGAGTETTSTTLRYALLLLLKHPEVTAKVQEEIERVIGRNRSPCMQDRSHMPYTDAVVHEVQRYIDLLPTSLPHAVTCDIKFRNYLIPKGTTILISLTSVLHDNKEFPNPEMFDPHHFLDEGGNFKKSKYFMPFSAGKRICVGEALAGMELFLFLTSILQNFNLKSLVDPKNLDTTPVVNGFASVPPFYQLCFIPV
Sequence of Cytochrome P450 2D6 (P10635 whole entry): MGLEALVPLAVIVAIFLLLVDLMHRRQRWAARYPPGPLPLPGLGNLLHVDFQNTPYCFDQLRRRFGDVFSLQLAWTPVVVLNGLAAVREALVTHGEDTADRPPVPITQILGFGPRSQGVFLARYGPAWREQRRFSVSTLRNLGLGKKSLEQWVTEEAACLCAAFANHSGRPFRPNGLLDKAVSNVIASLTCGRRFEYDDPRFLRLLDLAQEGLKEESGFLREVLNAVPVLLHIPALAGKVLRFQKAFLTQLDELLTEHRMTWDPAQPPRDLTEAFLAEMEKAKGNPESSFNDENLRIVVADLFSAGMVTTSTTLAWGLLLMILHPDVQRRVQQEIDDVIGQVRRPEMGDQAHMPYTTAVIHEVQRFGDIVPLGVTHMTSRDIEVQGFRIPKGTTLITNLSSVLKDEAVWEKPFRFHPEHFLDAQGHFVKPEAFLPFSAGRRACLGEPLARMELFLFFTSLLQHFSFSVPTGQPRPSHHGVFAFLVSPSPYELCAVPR
Sequence of Cytochrome P450 2C19 (P33261 whole entry): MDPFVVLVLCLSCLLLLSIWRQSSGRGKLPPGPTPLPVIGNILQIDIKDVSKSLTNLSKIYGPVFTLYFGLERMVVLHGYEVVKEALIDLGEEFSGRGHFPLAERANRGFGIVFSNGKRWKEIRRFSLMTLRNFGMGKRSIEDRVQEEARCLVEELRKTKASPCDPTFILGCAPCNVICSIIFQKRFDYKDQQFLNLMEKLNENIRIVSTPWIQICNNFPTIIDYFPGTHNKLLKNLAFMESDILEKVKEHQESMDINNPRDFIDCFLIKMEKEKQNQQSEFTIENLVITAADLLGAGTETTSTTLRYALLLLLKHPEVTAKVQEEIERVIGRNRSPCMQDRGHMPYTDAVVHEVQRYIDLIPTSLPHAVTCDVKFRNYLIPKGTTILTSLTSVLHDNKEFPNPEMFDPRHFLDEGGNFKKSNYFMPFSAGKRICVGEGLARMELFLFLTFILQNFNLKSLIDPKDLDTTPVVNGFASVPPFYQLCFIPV

CC1CC2=C(N=C(S)NC2c2cccc(F)c2)/C(=C/c2cccc(F)c2)C1 (stereo not given)
EC50 [1]: > 60 µM (inconclusive) | EC50 [2]: 1.83 µM (active)

COc1ccc(C2NCCc3c2[nH]c2ccccc32)cc1CN1CCc2cc(OC)c(OC)cc2C1C (stereo not given)
EC50 [1]: > 60 µM (not active) | EC50 [2]: 1.98 µM (active)

OCCNc1nc(NCCC2=CCCCC2)nc(N2CCOCC2)n1
AC50 ([3]; read-out: AC50): 15.8 µM (inconclusive)

CCc1ccc(-c2cc(C(F)(F)F)n3nc(C(=O)Nc4c(C)nn(Cc5ccccc5C)c4C)cc3n2)s1
EC50 [1]: > 60 µM (inconclusive) | EC50 [2]: 2.21 µM (active)

CCOc1ccc(CSC2=NCCN2)cc1Cl
EC50 [1]: > 60 µM (not active) | EC50 [2]: 1.1 µM (active)

CCc1ccccc1N(CC(=O)N1CCCC1)S(C)(=O)=O
EC50 [4]: > 195 µM (not active)

CN(C)c1ncc2nc(CCc3ccccc3)c(=O)n(CCc3ccccc3)c2n1
AC50 [5]: 7.94 µM (inconclusive)

Cc1ccc(CCN2CC(C(=O)NC3CCCC3)CC2=O)cc1 (stereo not given)
AC50 ([3]; read-out: AC50): 14.1 µM (inconclusive)

COc1cccc(CC2(CO)CCCN(Cc3ccc(C)s3)C2)c1 (stereo not given)
EC50 [1]: > 30 µM (not active) | EC50 [2]: 0.635 µM (active)

O=c1c(-c2cccs2)nc2cnc(N3CCNCC3)nc2n1-c1ccccc1
AC50 [6]: 20 µM (inconclusive) | AC50 [5]: 20 µM (inconclusive)

COc1ccc(/C(C)=N/NC(=O)c2ccc(CSc3cccc4cccnc34)cc2)cc1OC
AC50 [6]: 1.26 µM (inconclusive)

CSc1[nH]c(-c2ccc(C)cc2)nc1S(=O)(=O)c1ccccc1
AC50 [6]: 11.2 µM (inconclusive)

COc1ccc(C2=NN(S(C)(=O)=O)C(c3cccs3)C2)cc1OC (stereo not given)
EC50 [4]: > 195 µM (not active)

Cc1ccc(-c2csc(N/N=C/c3ccco3)n2)cc1
AC50 [6]: 20 µM (inconclusive)

C[C@@]12CCC=C[C@H]1[C@H](c1ccc(F)c(/C=C/c3ccccc3)c1)N(Cc1ccccc1)C2=O
AC50 [7]: 2.84 µM (active)

C/C(CC(=O)Nc1ccccc1C(F)(F)F)=N\NC(=O)c1cnccn1
EC50 [4]: > 195 µM (not active)

CC(C)c1c(CN(C)[C@@H](C)Cc2ccccc2)n(C)n(-c2ccccc2)c1=O [FAMPROFAZONE]
AC50 ([3]; read-out: AC50): 15.8 µM (inconclusive) | AC50 [5]: 10 µM (inconclusive)

COc1ccc(N2CCN(c3nc(Nc4ccc(C)c(F)c4)nc(N4CCCC4)n3)CC2)cc1
EC50 [1]: > 60 µM (not active) | EC50 [2]: 3.17 µM (active)

COc1ccc(OC)c(/N=C2\SCCCN2C(=O)c2ccc(N3C(=O)CCC3=O)cc2)c1
EC50 [4]: > 195 µM (not active)

O=C(Nc1ccccc1N1CCCC1)c1cccnc1Cl
EC50 [4]: > 195 µM (not active)

O=S(=O)(NCC(c1cccnc1)N1CCN(Cc2ccccc2)CC1)c1cc(F)ccc1F (stereo not given)
EC50 [1]: > 60 µM (not active) | EC50 [2]: 0.677 µM (active)

COc1ccccc1CNc1nc(-c2cccc(C#N)c2)nc2ccccc12
AC50 [6]: 1 µM (inconclusive)

FC(F)(F)c1ccc(CNCCc2ccc3c(c2)OCO3)cc1
EC50 [1]: > 60 µM (not active) | EC50 [2]: 0.308 µM (active)

CCn1nccc1C(=O)Nc1nc2ccccc2n1CCN1CCCCC1
AC50 [5]: 4.47 µM (inconclusive)

O=C(CSc1ccc(Cl)cc1)Nc1cccc(NC(=O)c2ccco2)c1
AC50 [6]: 5.01 µM (inconclusive)

O=C(NNc1ccccc1Br)C(=O)n1ccc2ccccc21
AC50 [7]: 3.46 µM (active)

COc1ccccc1C(=O)Nc1ccnn1C1CCN(Cc2cnc(N(C)C)s2)CC1
EC50 [1]: > 60 µM (not active) | EC50 [2]: 0.852 µM (active)

O[C@@H](c1cc([C@@]23C[C@H]4CC[C@@H]2C[C@H](C4)C3)nc2c(Cl)cc(Cl)cc12)[C@@H]1CCCCN1
AC50 ([3]; read-out: AC50): 0.794 µM (inconclusive) | AC50 [5]: 3.16 µM (inconclusive)

Oc1cc(O)c2c(c1)O[C@@H](c1ccc(O)c(O)c1)[C@H](O[C@@]1(c3cc(O)c(O)c(O)c3)Oc3cc(O)cc(O)c3[C@H](O)[C@@H]1O)C2
AC50 ([3]; read-out: AC50): 3.98 µM (inconclusive) | AC50 [6]: 6.31 µM (inconclusive)

CCc1nc2c(c(SC)nn2-c2ccccc2)c(N)c1C(=O)OC
AC50 ([3]; read-out: AC50): 25.1 µM (inconclusive) | AC50 [6]: 1.12 µM (inconclusive)

Nc1nnc(SCC(=O)OCC(=O)NC2CCCCC2)s1
AC50 [7]: > 195 µM (inactive)

Cn1c(=O)n(Cc2ccc(F)cc2)c(=O)c2c1nc1n2CCCN1C1CCCCC1
AC50 [7]: 3.33 µM (active)

CCCCCc1nnc(NC(=O)C(=O)OCC)s1
AC50 [6]: 28.2 µM (inconclusive)

Cc1noc(C)c1C(=O)N1CCC2(CCN(Cc3cc(C(F)(F)F)cc(C(F)(F)F)c3)CC2)CC1
AC50 [5]: 39.8 µM (inconclusive)

Cc1cccc(Cl)c1OCCCCn1ccnc1
EC50 [1]: > 60 µM (not active) | EC50 [2]: 1.62 µM (active)

Cn1c(Sc2ccc(-c3cccnc3)n2C)ccc1-c1cccnc1
AC50 [6]: 3.98 µM (inconclusive) | AC50 [5]: 3.16 µM (inconclusive)

O=C(CSc1nnc(-c2ccccn2)n1Cc1ccco1)Nc1ccc2c(c1)OCO2
AC50 [6]: 15.8 µM (inconclusive)

CCOc1cc(/C=C\c2nc(O)nc(O)c2[N+](=O)[O-])ccc1OC(C)CC (stereo not given)
AC50 [7]: 8.11 µM (active)

Clc1ccccc1CNCC1CCC(CNCc2ccccc2Cl)CC1 (stereo not given)
AC50 [6]: 1.26 µM (inconclusive)

CCOC(=O)C(C(=O)NCc1ccc(C)cc1)c1ncc(C(F)(F)F)cc1Cl (stereo not given)
AC50 ([3]; read-out: AC50): 11.2 µM (inconclusive)

CCOc1ccc(CN2CCN(Cc3cc4ccccc4[nH]3)CC2CCO)cc1 (stereo not given)
EC50 [1]: > 60 µM (not active) | EC50 [2]: 0.371 µM (active)

COc1cc(-c2ccc3c(=O)c4ccccc4n(C)c3c2)cc(OC)c1OC
AC50 [7]: 9.62 µM (active)

Cc1ccnc(NS(=O)(=O)c2ccc(NC(=O)C3CCCNC3=O)cc2)n1 (stereo not given)
AC50 [3]: inconclusive

COc1cc2nc(N3CCN(C(=O)OCc4ccccc4)[C@H](C(=O)NC(C)(C)C)C3)nc(N)c2cc1OC [L-765314]
AC50 [5]: 31.6 µM (inconclusive)

CC(=O)c1ccc(-c2ccc([C@H]3[C@H]4C=CC[C@@H](C)[C@@H]4C(=O)N3Cc3ccccc3)c(F)c2)cc1
AC50 [7]: 5.57 µM (active)

CCCc1nnc(NC(=O)CCC(=O)NCc2ccccc2OC)s1
AC50 ([3]; read-out: AC50): 11.2 µM (inconclusive)

CC(=O)OC[C@@H]1O[C@@H](O/N=C2/C[C@@H](O)[C@@H](O)[C@@H]3[C@@H]4C(=O)N(C[C@@H]5CCCO5)C(=O)[C@H]4CC[C@@H]23)[C@H](OC(C)=O)[C@H](OC(C)=O)[C@@H]1OC(C)=O
AC50 [5]: 3.98 µM (inconclusive)

C[C@@H](C(=O)Nc1ccc2ccccc2c1)[C@@H]1C[C@@]1(C)[C@@H](NC(=O)c1ccncc1Cl)c1ccccc1
AC50 [6]: 39.8 µM (inconclusive)

Oc1[nH]c2ccccc2c1N=Nc1ccc(C(F)(F)F)cn1
AC50 [3]: inconclusive

N=C(NOC(=O)COc1ccc2ccccc2c1Br)c1ccncc1
EC50 [1]: > 60 µM (not active) | EC50 [2]: 2.84 µM (active)

CCOc1cc(CNCCCN2CCOCC2)ccc1OCC(=O)NC(C)(C)C
EC50 [1]: > 60 µM (not active) | EC50 [2]: 0.87 µM (active)

Cc1[nH]n(-c2ccccc2)c(=O)c1/C=N/NC(=O)c1ccccc1F
EC50 [8]: 3.54 µM (active) | EC50 [9]: 6.72 µM (active)

COc1ccccc1CCn1c(=O)c(-c2cccc(F)c2)nc2cncnc21
AC50 [5]: 39.8 µM (inconclusive)

CC(C)C12CC[C@@]3(CC[C@H]4[C@@](C)(CCC[C@]4(C)C(=O)O)[C@@H]3C1)[C@@H](CN)C2
AC50 [6]: 1.26 µM (inconclusive)

COc1ccccc1-c1cc(NCc2cccnc2)ncn1
AC50 [5]: 20 µM (inconclusive)

CN1CCN(NC(=O)c2cn(-c3ccccc3)nc2-c2cccc(Br)c2)CC1
EC50 [1]: 4.99 µM (active) | EC50 [2]: 2.81 µM (active)

C[C@@H]1C[C@H](OC(=O)[C@@H](O)c2ccccc2)CC(C)(C)N1C
AC50 [5]: 15.8 µM (inconclusive)

CCC(=O)Nc1ccc(C(=O)OCC(=O)c2ccc(C)c([N+](=O)[O-])c2)cc1
AC50 ([3]; read-out: AC50): 11.2 µM (inconclusive) | AC50 [5]: 35.5 µM (inconclusive)

CC(NC(=O)CN=C(S)N(Cc1ccccc1)Cc1cccnc1)c1ccccc1 (stereo not given)
EC50 [1]: 10.8 µM (active) | EC50 [2]: 0.805 µM (active)

Cc1ccc(NS(=O)(=O)c2cc3c4c(cccc4c2)C(=O)NC3=O)cc1C
AC50 [7]: 5.69 µM (active)

Cc1noc(C)c1C(=O)N1CCC[C@@]2(CCN(c3ccccn3)C2)C1
AC50 [5]: 6.31 µM (inconclusive)

O=c1c2ccccc2nc(/C=C/c2ccccc2F)n1-c1ccccc1O
AC50 [7]: 2.4 µM (active)

Cc1cc(N)c2ccccc2[n+]1CCCCCCCCCCCCCC[n+]1c(C)cc(N)c2ccccc21
AC50 ([3]; read-out: AC50): 31.6 µM (inconclusive) | AC50 [6]: 39.8 µM (inconclusive)

CCOc1ccc(-n2cc(-c3ccccc3)c3c(S)ncnc32)cc1
EC50 [8]: 6.95 µM (active) | EC50 [9]: 14.9 µM (active)

COc1cccc2c1C(=N)c1c(O)c3c(c(O)c1C2=O)C[C@](O)(C(C)=O)C[C@@H]3O[C@H]1C[C@H](N)[C@@H](O)[C@H](C)O1
AC50 [5]: 3.16 µM (inconclusive)
